Data set [1] has as its system mice. Kind of data set: Adacel (Tdap vaccine) immunogenicity in mice, anti-PT antibody in serum. It counts as in vivo. Conditions: for augmentation of antibody levels compared to immunization with Adacel alone: 2 weeks after second SC immunization, adjuvant given with Adacel. As for the experimental part:
(§1) Adacel doses containing 1, 0.3, and 0.1 mcg of pertussis toxin per mouse were administered subcutaneously (SC, with no immunological adjuvant), using 2 vaccinations 4 weeks apart, resulting in a mean of 1,618 mcg, 898 mcg, and 107 mcg respectively of anti-PT antibody per ml of serum drawn 2 weeks after the second vaccination. The 0.1 mcg dose was indistinguishable from unvaccinated controls (96 mcg/ml). A 0.5 mcg dose of Adacel was selected for a pharmacology/toxicology (pharm/tox) study. The serological results for this study are summarized in FIG. 3 of the present application.

For data set [2], the system named is mice. Kind of data set: Engerix-B (hepatitis B vaccine) immunogenicity in mice, anti-HBsAg antibody. It counts as in vivo. As for the experimental part: (§2) Experiments were conducted with Engerix-B (HBV adult vaccine) in groups of 10 mice. Initially 3 mcg, 1 mcg, 0.3 mcg, 0.1 mcg, and 0.03 mcg Engerix-B doses per mouse were tested. Mean resulting anti-HBsAg antibody levels were 92,512 mcg/ml, 64,255 mcg/ml, 24,847 mcg/ml, 3,682 mcg/ml, and 910 mcg/ml respectively, with the 0.03 dose being indistinguishable from controls (821 mcg/ml). The 0.3 mcg dose of Engerix-B was selected for further studies and this dose was used mixed with various doses of TiterQuil-1055 (TQL-1055 / Compound I-4). The resulting geometric mean antibody concentrations are summarized in FIG. 4 of the present application.

Data set [3] in a line: Body weight of mice in the Engerix-B / TiterQuil-1055 dose study. Format: in vivo. As for the experimental part:
as §2

The test system of data set [4] is mice. Format: in vivo. Conditions: for changes in blood chemistry or hematology results: mice vaccinated SC days 1 and 15; for weight loss (body weight): mice, 50 mcg TiterQuil-1055, 20 mcg QS-21; for liver histopathology (hepatocellular cytoplasmic vacuolization / vacuolar changes): sacrificed day 22, 33 tissues examined. As for the experimental part:
as §1
A pharm/tox study was conducted in 7 groups of 5 mice: 1) PBS alone, 2) 50 mcg TiterQuil-1055, 3) 20 mcg QS-21, 4) Adacel 2.5 mcg pertussis toxin (⅕ the human dose), 5) Adacel + QS-21 (20 mcg QS-21), 6) Adacel + TiterQuil-1055 (50 mcg), 7) Adacel + TiterQuil-1055 (50 mcg). Mice were vaccinated SC on days 1 and 15, weighed daily, and bled and sacrificed on day 22, except for group 7 which was sacrificed on day 29. […] Histopathology of 33 different tissues was performed on all mice. Detected abnormalities were restricted to the liver. […] This abnormality was short lived and was no detected in group 7, which was sacrificed one week after groups 1-6.

The subject of data set [5] is hemolysis. Kind of data set: Hemolytic assay. It counts as cell-based. As for the experimental part: FIG. 5 depicts data showing the hemolytic activity of QS-21 at 2uM, 5uM and 20uM, and Compound 26 (TiterQuil-1-0-5-5 / TQL-1055) at 20uM, 100uM and 200uM. % Hemolytic activity reported as % of Triton-X100/SDS lysis control.
(§3) Natural and synthetic QS-21 (SQS-21 or SAPONEX®) and a variety of analogs were tested for hemolytic activity. […] FIG. 5 depicts results a hemolytic assay performed with TiterQuil-1055. In a companion toxicity study three days after immunization, animals that received 20 mcg of QS-21 have lost 8-10% of their body mass on average, whereas PBS, TiterQuil-101 and TiterQuil-1055 recipients have gained 5% on average (normal weight gain in young mice). Without being bound by theory, hemolytic activity may be a direct result of degradation of QS-21 under physiologic conditions and TiterQuil-1055′s lack of hemolytic activity may result from improved stability.

The nature of data set [6]: Companion toxicity study, body mass three days after immunization. Format: in vivo, mice. Here is the method:
as §3

A short description of data set [7]: Stability at 37° C. It counts as physicochemical. Conditions: for degradation: after two weeks at 37° C. As for the experimental part:
as §3

For data set [8] the following is noted: cited from earlier work.
Where [9] appears, read: 50 mcg TiterQuil-1055, 20 mcg QS-21, Adacel 2.5 mcg pertussis toxin.

A value given as a limit tells only on which side of the number the result lay.

Turning to `CC1O[C@@H](OC2C(O)[C@@H](NC(=O)CCCCCCCCCCC(=O)O)C(CO)O[C@H]2OC(=O)[C@]23CCC(C)(C)CC2C2=CCC4C5(C)CC[C@H](O)C(C)(C=O)[C@@H]5CC[C@@]4(C)C2(C)CC3O)C(O)C(O)[C@H]1O[C@@H]1OC[C@@H](O)C(O)C1O` (stereo partly shown) [TiterQuil-1055], the “antibody levels 2 weeks later” value in data set [1] (Adacel with TiterQuil-1055, 2 weeks after the first reading) is recorded as “further increased”. Also, the “augmentation of antibody levels compared to immunization with Adacel alone” value in data set [1] (groups of 5 mice) worked out at 70 fold. Besides, the “antibody levels 2 weeks after the second SC immunization” value in data set [1] (pharm/tox study, groups of 5 mice, Adacel alone or Adacel with TiterQuil-1055) is listed as 52,344. In addition, the entries for the “increase in antibody levels compared to Engerix-B alone” value in data set [2] (10 mcg TiterQuil-1055 mixed with 0.3 mcg Engerix-B), in data set [2] (30 mcg TiterQuil-1055 mixed with 0.3 mcg Engerix-B) and in data set [2] (100 mcg TiterQuil-1055 mixed with 0.3 mcg Engerix-B) were “no serologic effect”, more than 6 fold and 5 fold, respectively. Further, in data set [2] (TiterQuil-1055 doses above 50 mcg per mouse), the “antibody response at high adjuvant doses” value is “Lack of antibody increase or decreasing responses”. The weight loss result in data set [3] (30 mcg TiterQuil-1055 dose) was “No weight loss”; in data set [3] (100 mcg TiterQuil-1055 dose) it was 4%; in data set [3] (300 mcg TiterQuil-1055 dose) it was 5%; in data set [4] (mice vaccinated SC days 1 and 15, weighed daily, 50 mcg TiterQuil-1055, 20 mcg QS-21, Adacel 2.5 mcg pertussis toxin) it was “no other mice”. In addition, the “changes in blood chemistry or hematology results” value in data set [4] (setting [9]) was “No changes”. Also, the “weight loss (body weight)” value in data set [4] is reported as “No weight loss”. Also, in data set [4] (setting [9]), the “liver histopathology (hepatocellular cytoplasmic vacuolization / vacuolar changes)” value is “No changes at all”. The hemolytic activity result in data set [5] is given as “much lower or undetectable hemolytic activity”. Further, the “body mass gained on average” value in data set [6] was 5%. Besides, the degradation result in data set [7] is “without detectable degradation”. Also, the stability result in data set [7] (compared with QS-21) is given as “increased stability”.

On to QS-21 [reference compound], for which, in data set [1] (groups of 5 mice), the “augmentation of antibody levels compared to immunization with Adacel alone” value was 10 fold. For the same compound, in data set [4] (setting [9]), the “changes in blood chemistry or hematology results” value was “No changes” and the “liver histopathology (hepatocellular cytoplasmic vacuolization / vacuolar changes)” value was “Mild vacuolar changes”. The “weight loss (body weight)” value in data set [4] is listed as 8-9%. Further, the hemolytic activity result in data set [5] is on record as “highly hemolytically active”. Further, the “body mass lost on average” value in data set [6] (20 mcg QS-21) was 8-10%. In addition, the degradation in data set [7] is reported as 20%. Also, the “tolerated (maximum) dose in cancer patients” value in data set [8] (cancer patients, above it local and systemic side effects) is 100 to 150 µg. For the same compound, the “maximum dose for healthy patients” value in data set [8] (healthy patients) was approximately 50 µg. In data set [8] (well (non-cancer) adult and child recipients), the “highest practical tolerable dose” value was 25 to 50 µg.

The values above are taken from patent US20230357300A1, “TRITERPENE SAPONIN SYNTHESIS, INTERMEDIATES AND ADJUVANT COMBINATIONS” (priority 2017, published 2023).
